Assay results from EP0502314A1, “Benzimidazol, medicaments containing them and process for their preparation” (Dr. Karl Thomae GmbH, priority 1991, dated 1992).
Structures can show the parent of a compound that is named as a salt.

Target: T1, Angiotensin II-Rezeptor (Rattus norvegicus, UniProt P25095)
T1 construct: Das Gewebe (Rattenlunge) wird in Tris-Puffer; from tissue; host or cells: rat lung homogenate (membrane pellet, 20,000 x g)
T1 sequence (P25095 1-359): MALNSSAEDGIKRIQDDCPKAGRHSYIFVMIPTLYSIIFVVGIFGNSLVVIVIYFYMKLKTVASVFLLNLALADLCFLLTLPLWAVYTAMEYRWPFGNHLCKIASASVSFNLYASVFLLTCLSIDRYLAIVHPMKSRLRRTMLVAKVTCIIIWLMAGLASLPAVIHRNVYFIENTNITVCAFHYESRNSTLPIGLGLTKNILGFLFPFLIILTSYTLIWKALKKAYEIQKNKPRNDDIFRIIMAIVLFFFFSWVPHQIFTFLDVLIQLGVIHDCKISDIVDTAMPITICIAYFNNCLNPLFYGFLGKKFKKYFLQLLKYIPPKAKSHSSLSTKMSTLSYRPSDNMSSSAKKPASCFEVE
Test: Angiotensin II receptor binding (displacement of [125I]-angiotensin II, rat lung homogenate)
Design: species or system Ratte
Details: Rattenlunge homogenate; 50 pM [125I]-Angiotensin II; 60 Min. bei 37°C; read-out: IC₅₀
Procedure: Methodenbeschreibung Angiotensin II-Rezeptorbindung
Das Gewebe (Rattenlunge) wird in Tris-Puffer (50 mMol Tris, 150 mMol NaCl, 5 mMol EDTA, pH 7.40) homogenisiert und zweimal je 20 Min. bei 20.000 x g zentrifugiert. Das endgültige Pellet wird in Inkubations-Puffer (50 mMol Tris, 5 mMol MgCl₂, 0,2 % BSA, pH 7,40) 1:75, bezogen auf das Feuchtgewicht des Gewebes, resuspendiert. Je 0,1 ml Homogenat wird für 60 Min. bei 37°C mit 50 pM [125^I]-Angiotensin II (NEN, Dreieich, FRG) und steigenden Konzentrationen der Testsubstanz in einem Gesamtvolumen von 0,25 ml inkubiert. Die Inkubation wird durch rasche Filtration durch Glasfiber-Filtermatten beendet. Die Filter werden je 4 ml eiskaltem Puffer (25 mMol Tris, 2.5 mMol MgCl₂, 0,1 % BSA, pH 7,40) gewaschen. Die gebundene Radioaktivität wird in einem Gamma-Counter ermittelt. Aus der Dosis-Wirkungskurve wird der entsprechende IC₅₀-Wert ermittelt.

| IC50 | SMILES |
| --- | --- |
| 510 nM | CCCCc1nc2c(C)ccc(OCCCn3ccnc3)c2n1Cc1ccc(-c2ccccc2C(=O)O)cc1 [Substanz A, 4'-[[2-n-Butyl-7-[3-(imidazol-1-yl)-propyloxy]-4-methyl-benzimidazol-1-yl]-methyl]-biphenyl-2-carbonsäure] |
| 52 nM | CCCCc1nc2c(C)ccc(OCCCn3cnc4ccccc43)c2n1Cc1ccc(-c2ccccc2C(=O)O)cc1 [Substanz B, 4'-[[2-n-Butyl-7-[3-(benzimidazol-1-yl)-propyloxy]-4-methyl-benzimidazol-1-yl]-methyl]-biphenyl-2-carbonsäure-trifluoracetat] |
| 14 nM | CCCc1nc2c(C)cc(-c3nc4ccccc4n3C)cc2n1Cc1ccc(-c2ccccc2-c2nnn[nH]2)cc1 [Substanz E, 4'-([2-n-Propyl-4-methyl-6-(1-methylbenzimidazol-2-yl)-benzimidazol-1-yl]-methyl]-2-(1H-tetrazol-5-yl)-biphenyl] |
| 5 nM | CCCc1nc2c(C)cc(N3Cc4ccccc4C3=O)cc2n1Cc1ccc(-c2ccccc2-c2nnn[nH]2)cc1 [Substanz F, 4'-[[2-n-Propyl-4-methyl-6-(1-oxo-isoindolin-2-yl)-benzimidazol-1-yl]-methyl]-2-(1H-tetrazol-5-yl)-biphenyl] |
| 20 nM | CCCCc1nc2c(C)cc(N3C(=O)C(C)=C(C)C3=O)cc2n1Cc1ccc(-c2ccccc2C(=O)O)cc1 [Substanz H, 4'-[[2-n-Butyl-6-(2,3-dimethylmaleinsäureimino)-4-methyl-benzimidazol-1-yl]-methyl]-biphenyl-2-carbonsäure-semihydrat] |
| 6.6 nM | CCCCc1nc2c(C)cc(NC(=O)C(C)C)cc2n1Cc1ccc(-c2ccccc2C(=O)O)cc1 [Substanz I, 4'-[[2-n-Butyl-6-(isopropylcarbonylamino)-4-methyl-benzimidazol-1-yl]-methyl]-biphenyl-2-carbonsäure] |
| 3.5 nM | CCCCc1nc2c(C)cc(NC(=O)N3CCOCC3)cc2n1Cc1ccc(-c2ccccc2C(=O)O)cc1 [Substanz J, 4'-[[2-n-Butyl-4-methyl-6-(morpholinocarbonylamino)-benzimidazol-1-yl]-methyl]-biphenyl-2-carbonsäure] |
| 17 nM | CCCCc1nc2c(C)cc(NC(=O)NC3CCCCC3)cc2n1Cc1ccc(-c2ccccc2C(=O)O)cc1 [Substanz K, 4'-[[2-n-Butyl-6-(cyclohexylaminocarbonylamino)-4-methyl-benzimidazol-1-yl]-methyl]-biphenyl-2-carbonsäure-semi-trifluoracetat] |
| 26 nM | CCCc1nc2c(C)cc(-c3nc4cc(F)ccc4n3C)cc2n1Cc1ccc(-c2ccccc2C(=O)O)cc1 [Substanz N, 4'-[(2-n-Propyl-4-methyl-6-(1-methyl-5-fluor-benzimidazol-2-yl)-benzimidazol-1-yl)-methyl]-biphenyl-2-carbonsäure] |
| 1.2 nM | CCCc1nc2c(C)cc(-c3cn4c(n3)CCCC4)cc2n1Cc1ccc(-c2ccccc2C(=O)O)cc1 [Substanz P, 4'-[(2-n-Propyl-4-methyl-6-(5,6,7,8-tetrahydro-imidazo-[1,2-a]pyridin-2-yl)-benzimidazol-1-yl)-methyl]-biphenyl-2-carbonsäure] |

Further lines, the molecule ahead of its results:

| SMILES | IC50 |
| --- | --- |
| CCCCc1nc2c(C)ccc(OCCCCn3cnc4c3CCCC4)c2n1Cc1ccc(-c2ccccc2C(=O)O)cc1 [Substanz C, 4'-[[2-n-Butyl-4-methyl-7-[4-(tetrahydrobenzimidazol-1-yl)-butyloxy]-benzimidazol-1-yl]-methyl]-biphenyl-2-carbonsäure] | 130 nM |
| CCCc1nc2c(C)cc(-c3nc4ccccc4n3C)cc2n1Cc1ccc(-c2ccccc2C(=O)O)cc1 [Substanz D, 4'-[[2-n-Propyl-4-methyl-6-(1-methylbenzimidazol-2-yl)-benzimidazol-1-yl]-methyl]-biphenyl-2-carbonsäure] | 3.7 nM |
| CCCc1nc2c(C)cc(N3CCCCS3(=O)=O)cc2n1Cc1ccc(-c2ccccc2-c2nn[nH]n2)cc1 [Substanz G, 4'-[[2-n-Propyl-4-methyl-6-(butansultam-1-yl)-benzimidazol-1-yl]-methyl]-2-(1H-tetrazol-5-yl)-biphenyl] | 1.2 nM |
| CCCCc1nc2c(C)ccc(OCCCn3ccnc3)c2n1Cc1ccc(-c2ccccc2-c2nnn[nH]2)cc1 [Substanz L, 4'-[[2-n-Butyl-7-[3-(imidazol-1-yl)-propyloxy]-4-methyl-benzimidazol-1-yl]-methyl]-2-(1H-tetrazol-5-yl)-biphenyl] | 240 nM |
| Cc1cc(-c2nc3ccccc3n2C)cc2c1nc(C1CC1)n2Cc1ccc(-c2ccccc2C(=O)O)cc1 [Substanz M, 4'-[(2-Cyclopropyl-4-methyl-6-(1-methylbenzimidazol-2-yl)-benzimidazol-1-yl)-methyl]-biphenyl-2-carbonsäure] | 12 nM |
| CCCc1nc2c(C)cc(-c3cn4cccnc4n3)cc2n1Cc1ccc(-c2ccccc2-c2nnn[nH]2)cc1 [Substanz O, 4'-[(2-n-Propyl-4-methyl-6-(imidazo[1,2-a]pyrimidin-2-yl)-benzimidazol-1-yl)-methyl]-2-(1H-tetrazol-5-yl)-biphenyl] | 3.4 nM |
| CCCc1nc2c(C)cc(-c3cn4c(n3)CCCC4)cc2n1Cc1ccc(-c2ccccc2-c2nnn[nH]2)cc1 [Substanz Q, 4'-[(2-n-Propyl-4-methyl-6-(5,6,7,8-tetrahydro-imidazo-[1,2-a]pyridin-2-yl)-benzimidazol-1-yl)-methyl]-2-(1H-tetrazol-5-yl)-biphenyl] | 1.7 nM |
| CCCc1nc2c(Cl)cc(-c3nc4ccccc4n3C)cc2n1Cc1ccc(-c2ccccc2-c2nn[nH]n2)cc1 [Substanz R, 4'-[(2-n-Propyl-4-chlor-6-(1-methylbenzimidazol-2-yl)-benzimidazol-1-yl)-methyl]-2-(1H-tetrahol-5-yl)-biphenyl-hydrochlorid] | 20 nM |
| CCCc1nc2c(C)cc(-c3cn4ccsc4n3)cc2n1Cc1ccc(-c2ccccc2C(=O)O)cc1 [Substanz S, 4'-[[2-n-Propyl-4-methyl-6-(imidazo[2,1-b]thiazol-6-yl)-benzimidazol-1-yl]-methyl]-biphenyl-2-carbonsäure] | 7.8 nM |
